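These data come from cells grown in 96-well plates and exposed to compound for 48 hours at five concentrations. The concentration for full growth arrest is given as TGI.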
Experiments:
Assay in all cases: inhibition of tumour cell growth, NCI panel, 48 h
786-0 renal = system: 786-0 renal
A498 renal = system: A498 renal
A549 NSCLC = system: A549 NSCLC
ACHN renal = system: ACHN renal
CAKI-1 renal = system: CAKI-1 renal
CCRF-CEM leukemia = system: CCRF-CEM leukemia
COLO 205 colon = system: COLO 205 colon
DLD-1 colon = system: DLD-1 colon
DMS 273 small cell lung = system: DMS 273 small cell lung
EKVX NSCLC = system: EKVX NSCLC
HCT-116 colon = system: HCT-116 colon
HCT-15 colon = system: HCT-15 colon
HL-60(TB) leukemia = system: HL-60(TB) leukemia
HOP-18 NSCLC = system: HOP-18 NSCLC
HOP-62 NSCLC = system: HOP-62 NSCLC
HOP-92 NSCLC = system: HOP-92 NSCLC
HT29 colon = system: HT29 colon
IGROV1 ovarian = system: IGROV1 ovarian
K-562 leukemia = system: K-562 leukemia
KM12 colon = system: KM12 colon
KM20L2 colon = system: KM20L2 colon
LOX IMVI melanoma = system: LOX IMVI melanoma
LXFL 529 NSCLC = system: LXFL 529 NSCLC
M14 melanoma = system: M14 melanoma
M19-MEL melanoma = system: M19-MEL melanoma
MALME-3M melanoma = system: MALME-3M melanoma
MOLT-4 leukemia = system: MOLT-4 leukemia
NCI-H23 lung = system: NCI-H23 lung
NCI-H460 lung = system: NCI-H460 lung
NCI-H522 lung = system: NCI-H522 lung
OVCAR-3 ovarian = system: OVCAR-3 ovarian
OVCAR-4 ovarian = system: OVCAR-4 ovarian
OVCAR-8 ovarian = system: OVCAR-8 ovarian
RPMI-8226 leukemia = system: RPMI-8226 leukemia
RXF 393 renal = system: RXF 393 renal
RXF-631 renal = system: RXF-631 renal
SF-268 CNS = system: SF-268 CNS
SF-295 CNS = system: SF-295 CNS
SF-539 CNS = system: SF-539 CNS
SK-MEL-2 melanoma = system: SK-MEL-2 melanoma
SK-MEL-28 melanoma = system: SK-MEL-28 melanoma
SK-MEL-5 melanoma = system: SK-MEL-5 melanoma
SK-OV-3 ovarian = system: SK-OV-3 ovarian
SN12C renal = system: SN12C renal
SNB-19 CNS = system: SNB-19 CNS
SNB-75 CNS = system: SNB-75 CNS
SNB-78 CNS = system: SNB-78 CNS
SW-620 colon = system: SW-620 colon
TK-10 renal = system: TK-10 renal
U251 CNS = system: U251 CNS
UACC-257 melanoma = system: UACC-257 melanoma
UACC-62 melanoma = system: UACC-62 melanoma
UO-31 renal = system: UO-31 renal
XF 498 CNS = system: XF 498 CNS
DMS 114 small cell lung = system: DMS 114 small cell lung
HCC-2998 colon = system: HCC-2998 colon
NCI-H226 lung = system: NCI-H226 lung
OVCAR-5 ovarian = system: OVCAR-5 ovarian
SR leukemia = system: SR leukemia

## Cc1cc(C)nc(NS(=O)(=O)c2ccc(NC(=O)c3cccc4c(Nc5ccc(S(=O)(=O)Nc6nc(C)cc(C)n6)cc5)c5ccccc5nc34)cc2)n1
786-0 renal
  TGI: 46.8 µM
A498 renal
  TGI: 35.9 µM
A549 NSCLC
  TGI: 68.2 µM
ACHN renal
  TGI: 49.8 µM
CAKI-1 renal
  TGI: 51.6 µM
CCRF-CEM leukemia
  TGI: 69.6 µM
COLO 205 colon
  TGI: 45.4 µM
DLD-1 colon
  TGI: 54.2 µM
DMS 273 small cell lung
  TGI: 38.9 µM
EKVX NSCLC
  TGI: 55.1 µM
HCT-116 colon
  TGI: 26 µM
HCT-15 colon
  TGI: 49 µM
HL-60(TB) leukemia
  TGI: 48.9 µM
HOP-18 NSCLC
  TGI: 29.7 µM
HOP-62 NSCLC
  TGI: 66 µM
HOP-92 NSCLC
  TGI: 45.1 µM
HT29 colon
  TGI: 43.9 µM
IGROV1 ovarian
  TGI: > 100 µM
K-562 leukemia
  TGI: 61.2 µM
KM12 colon
  TGI: 44.3 µM
KM20L2 colon
  TGI: 42.9 µM
LOX IMVI melanoma
  TGI: 38.7 µM
LXFL 529 NSCLC
  TGI: 70.3 µM
M14 melanoma
  TGI: 54.9 µM
M19-MEL melanoma
  TGI: > 100 µM
MALME-3M melanoma
  TGI: 56.7 µM
MOLT-4 leukemia
  TGI: 62.8 µM
NCI-H23 lung
  TGI: 57.3 µM
NCI-H460 lung
  TGI: > 100 µM
NCI-H522 lung
  TGI: 32.8 µM
OVCAR-3 ovarian
  TGI: 39.8 µM
OVCAR-4 ovarian
  TGI: 64.1 µM
OVCAR-8 ovarian
  TGI: 68.1 µM
RPMI-8226 leukemia
  TGI: 61.8 µM
RXF 393 renal
  TGI: 31.5 µM
RXF-631 renal
  TGI: 42.6 µM
SF-268 CNS
  TGI: 93 µM
SF-295 CNS
  TGI: 51.5 µM
SF-539 CNS
  TGI: 32.6 µM
SK-MEL-2 melanoma
  TGI: 70.4 µM
SK-MEL-28 melanoma
  TGI: 46 µM
SK-MEL-5 melanoma
  TGI: 36.6 µM
SK-OV-3 ovarian
  TGI: 57.2 µM
SN12C renal
  TGI: 41.1 µM
SNB-19 CNS
  TGI: 82.4 µM
SNB-75 CNS
  TGI: 35.5 µM
SNB-78 CNS
  TGI: > 100 µM
SW-620 colon
  TGI: 65.3 µM
TK-10 renal
  TGI: 73.3 µM
U251 CNS
  TGI: 38.6 µM
UACC-257 melanoma
  TGI: 43.2 µM
UACC-62 melanoma
  TGI: 57.3 µM
UO-31 renal
  TGI: 37.3 µM
XF 498 CNS
  TGI: 79.7 µM

## COc1ccc2c(c1)CCc1cnn(C3OC(COC(C)=O)C(OC(C)=O)C(OC(C)=O)C3OC(C)=O)c1-2 (stereo unspecified)
786-0 renal
  TGI: 75.6 µM
A498 renal
  TGI: > 100 µM
A549 NSCLC
  TGI: > 100 µM
ACHN renal
  TGI: > 100 µM
CAKI-1 renal
  TGI: > 100 µM
CCRF-CEM leukemia
  TGI: 60.5 µM
COLO 205 colon
  TGI: > 100 µM
DLD-1 colon
  TGI: > 100 µM
DMS 114 small cell lung
  TGI: > 100 µM
DMS 273 small cell lung
  TGI: > 100 µM
EKVX NSCLC
  TGI: > 100 µM
HCC-2998 colon
  TGI: > 100 µM
HCT-116 colon
  TGI: > 100 µM
HCT-15 colon
  TGI: > 100 µM
HL-60(TB) leukemia
  TGI: > 100 µM
HOP-62 NSCLC
  TGI: > 100 µM
HOP-92 NSCLC
  TGI: 51.5 µM
HT29 colon
  TGI: > 100 µM
K-562 leukemia
  TGI: > 100 µM
KM12 colon
  TGI: > 100 µM
KM20L2 colon
  TGI: 51.8 µM
LOX IMVI melanoma
  TGI: > 100 µM
LXFL 529 NSCLC
  TGI: 41.4 µM
M14 melanoma
  TGI: > 100 µM
M19-MEL melanoma
  TGI: > 100 µM
MOLT-4 leukemia
  TGI: 74.3 µM
NCI-H226 lung
  TGI: > 100 µM
NCI-H23 lung
  TGI: > 100 µM
NCI-H460 lung
  TGI: > 100 µM
NCI-H522 lung
  TGI: 31.7 µM
OVCAR-3 ovarian
  TGI: 56.7 µM
OVCAR-5 ovarian
  TGI: > 100 µM
OVCAR-8 ovarian
  TGI: > 100 µM
RPMI-8226 leukemia
  TGI: 53.8 µM
RXF-631 renal
  TGI: > 100 µM
SF-268 CNS
  TGI: > 100 µM
SF-295 CNS
  TGI: > 100 µM
SF-539 CNS
  TGI: > 100 µM
SK-MEL-2 melanoma
  TGI: > 100 µM
SK-MEL-28 melanoma
  TGI: > 100 µM
SK-MEL-5 melanoma
  TGI: > 100 µM
SN12C renal
  TGI: > 100 µM
SNB-19 CNS
  TGI: > 100 µM
SNB-75 CNS
  TGI: > 100 µM
SNB-78 CNS
  TGI: > 100 µM
SR leukemia
  TGI: 70.5 µM
SW-620 colon
  TGI: 36.2 µM
TK-10 renal
  TGI: > 100 µM
U251 CNS
  TGI: 65.6 µM
UACC-257 melanoma
  TGI: > 100 µM
UACC-62 melanoma
  TGI: > 100 µM
XF 498 CNS
  TGI: 52.1 µM

Reference: PubChem BioAssay (NCI)
